In PMC8626583, “Collagen’s primary structure determines collagen:HSP47 complex stoichiometry” (The Journal of Biological Chemistry, 2021):
“And” between values parts separate entries of the source, which are not always exact repeats. Equal values may be shown once. Read-outs that look alike come from different tables or passages of the source.

How the values were obtained:
[1] = target: T1, HSP47 (Canis lupus familiaris, UniProt C7C419); conditions: CMP coated 500 ng/well, HSP47 1:4 dilution series from 8 or 10 μM, anti-His-HRP/TMB read-out, four-parameter logistic fit, triplicates
T1 sequence (C7C419 entry or part of it): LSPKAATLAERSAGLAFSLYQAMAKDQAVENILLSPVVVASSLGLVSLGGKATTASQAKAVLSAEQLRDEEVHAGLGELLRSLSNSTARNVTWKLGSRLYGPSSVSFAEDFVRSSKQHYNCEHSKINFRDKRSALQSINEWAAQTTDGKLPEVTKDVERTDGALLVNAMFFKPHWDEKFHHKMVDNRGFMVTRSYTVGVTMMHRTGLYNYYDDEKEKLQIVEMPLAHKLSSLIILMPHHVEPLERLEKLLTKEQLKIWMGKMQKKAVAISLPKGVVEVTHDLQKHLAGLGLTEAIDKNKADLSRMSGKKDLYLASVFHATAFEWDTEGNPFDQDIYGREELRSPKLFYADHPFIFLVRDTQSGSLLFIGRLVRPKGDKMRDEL
Method: Purified collagen model peptides were coated onto a Nunc MaxiSorp (Thermo Fisher Scientific), 500 ng/well. Plates were washed after 1 h at RT with TBS-T 0.05% and free binding sites were blocked with 1% (w/v) BSA in TBS. […] Assays were either stopped with 10% H2SO4 and absorption measured at 450 nm or continuously monitored at 370 nm every 20 min for 1 h. In latter cases, timepoints showing the highest signal-to-noise ratio were used for analysis. […] Results were analyzed using Gen5 (BioTek) and Origin 2018.
The values shown for ELISA-style binding assays represent the average of triplicates. Data from affinity assays were analyzed using a four-parameter logistic fit function ([44]) in Origin 2018.

[2] = target: T1, HSP47; conditions: gold-labeled HSP47 200 nM, foldon-CMP 100 nM (2:1); 30 fields of 1 μm2 counted
Method: Briefly, mixed protein solutions were adsorbed to 400 mesh carbon-coated copper grids and stained with 0.75% (w/v) uranyl formate. Specimens were examined in a Philips/FEICM 100 TWIN transmission electron microscope operated at 60 kV accelerating voltage. Images were recorded with a side-mounted Olympus Veleta camera with a resolution of 2048 × 2048 pixels (2k × 2K) and the ITEM acquisitions software.

[3] = target: T1, HSP47; conditions: normalized to water at 20 °C
Method: All samples were incubated for 30 min at RT and afterward centrifuged at 42.000 rpm in a ProteomeLab XL-A analytical ultracentrifuge (Beckman Coulter) equipped with a fluorescence detection system (AU-FDS; Aviv Biomedical Inc). In this setup 42.000 rpm translates to 117.552g at the top (r = 59.5 mm) and 142.248g at the bottom (r = 72.0 mm) of the sample cell. Samples were spun in standard 12 mm double-sector epon-filled centerpieces, covered with quartz windows. All measurements were performed in triplicates and key findings repeated three times.
The resulting sedimentation velocity profiles were analyzed using DCDT+ version 2.4.3 software by John Philo ([40]). The buffer density (ρ) and buffer viscosity (η) of the buffer used for data analysis were calculated with [sequence]

[4] = read-out: KD determined by curve fittings, Fig. 1D
[5] = higher molar ratios of HSP47 (up to 20 μM) to 1 μM ATTO488-labeled CMP
[6] = 1–5 μM HSP47 to 1 μM ATTO488-labeled CMP, 20 mM HEPES, 150 mM NaCl pH 7.5

Substance	Kd [1, 4]	Stoichiometry, 0 Au / foldon (no HSP47 bound) [2]	Stoichiometry, 1 Au / foldon (one HSP47 bound) [2]	sedimentation coefficient of the HSP47:CMP complex [3, 5]	sedimentation coefficient of the HSP47:CMP complex [3, 6]	Kd ([1]; Fig. 1C)	Stoichiometry, 2 Au / foldon (two HSP47 bound) [2]
GARGLP	24.1 ± 5.4 nM	52%	46%	even higher sedimentation rates	–	–	–
GPRGFP	12 ± 1.4 nM	54%	45%	stagnated	~4 S	–	–
GPRGPP	21.7 nM and ~21 nM	–	29%	~5 S	~4 S	36 ± 3 nM	18%
